# Measurements taken from patent US9724334B1, “Method for treating a neurodegenerative disease or depression comprising administering derivatives of 2-amino-2-(1-dodecyl-1H-1,2,3-triazol-4-yl)propane-1,3-diol” (Kyungpook National University Industry-Academic Cooperation …, priority 2016, dated 2017).
# Test system: APP/PS1 mice
# Assay: Western blotting of autophagy-related proteins (LC3, Beclin-1, cathepsin D, p62) in brain tissue of APP/PS1 mice
# Format: in vivo, mouse
# Description: To confirm the therapeutic effect of the novel ASM inhibitory compounds, the novel ASM inhibitory compound or AMI were fed via drinking water at a dose of 100 mg/kg/day to mice at 5.5 months of age. Three months after the feeding, behavioral analysis on the mice was performed, followed by sampling of mouse brain tissues (FIG. 3).
# Expression of the following genes was analyzed using Western blotting. First, antibodies against LC3, Becklin-1, p62 (All of them were purchased from Cell Signaling Technologies), Cathepsin D (R&D systems) and β-actin (Santa Cruz) were used, while densitometric quantification was performed using ImageJ Software (US National Institutes of Health).
# In order to verify the mechanism of the ASM inhibitory compound of the Chemical Formula 2 in the autophagy-related pathways upon its administration, the conversion of LC3-I into LC3-II, and the expression levels of Beclin-1, cathepsin D and p62 in the brain tissue samples of the WT mice, APP/PS1 mice, and APP/PS1 mice treated with the ASM inhibitory compound of the Chemical Formula 2 which were 9.5 months old, respectively, were confirmed by Western blotting experiments.
# [1] = 9.5 months old APP/PS1 mice, treated versus untreated
structure (smiles),measurement,setting,value
"CCCCCCCCCCCCn1cc(C(N)(CO)CO)nn1 [Chemical Formula 2, 2-amino-2-(1-dodecyl-1H-1,2,3-triazol-4-yl)propane-1,3-diol]",conversion of LC3-I to LC3-II,[1],decreased
same,expression level of cathepsin D,[1],decreased
same,expression level of p62,[1],decreased
same,expression of Beclin-1,"9.5 months old, WT, APP/PS1 and treated APP/PS1 mice compared",little difference
